Drawing on the NIST ThermoML archive (doi:10.1021/acs.jced.6b00497), this text covers Normal melting temperature for one compound.

± gives the expanded uncertainty stated by the source.

The conditions of the data set: Crystal; DTA.

`O=C(O)c1cc(N=Nc2ccc(S(=O)(=O)Nc3ccccn3)cc2)ccc1O` [Sulfasalazine]: the Normal melting temperature was 220.00 ± 1 °C.
